Experimental data as given in patent US7932271B2, “Heterocyclic methyl sulfone derivative” (Daiichi Pharmaceutical Co., Ltd., priority 2003, dated 2011).
Counter-ions that a name gives are not always drawn.

Compared with `CN1CCN(C(=O)CCc2cnc(C(c3cc(F)ccc3F)S(=O)(=O)c3ccc(Cl)cc3)c(F)c2)CC1.Cl` (stereo not drawn), `O=C(O)CCc1cnc(C(c2cc(F)ccc2F)S(=O)(=O)c2ccc(Cl)cc2)c(F)c1` (stereo not drawn) [Example 133, 3-[6-(4-Chlorophenylsulfonyl)(2,5-difluorophenyl)methyl-5-fluoropyridin-3-yl]propionic acid] is lower in melting point: 243 to 245 °C for the first, 174 to 176 °C for the second.

Compared with `O=C(O)c1cc(C(c2cc(F)ccc2F)S(=O)(=O)c2ccc(Cl)cc2)c(Cl)cn1` (stereo not drawn) [Example 262, 5-Chloro-4-[(4-chlorophenylsulfonyl)(2,5-difluorophenyl)methyl]picolinic acid], `O=S(=O)(c1ccc(Cl)cc1)C(c1cc(F)ccc1F)c1cc(Cl)ncc1Cl` (stereo not drawn) (hydrate or solvate) [Example 57, 2,5-Dichloro-4-[(4-chlorophenylsulfonyl)-(2,5-difluorophenyl)methyl]pyridine 0.5 hydrate] is higher in melting point: 94 to 96 °C for the first, 147 to 148 °C for the second.

First: NCCNc1cc(C(c2cc(F)ccc2F)S(=O)(=O)c2ccc(Cl)cc2)c(Cl)cn1 (stereo not drawn) (as salt: hydrochloride) [Example 193, N-[5-Chloro-4-[(4-chlorophenylsulfonyl)-(2,5-difluorophenyl)methyl]pyridin-2-yl]ethane-1,2-diamine dihydrochloride]
Second: O=C(O)CCNc1cc(C(c2cc(F)ccc2F)S(=O)(=O)c2ccc(Cl)cc2)c(Cl)cn1 (stereo not drawn) (hydrate or solvate) [Example 155, 3-[[5-Chloro-4-[(4-chlorophenylsulfonyl)-(2,5-difluorophenyl)methyl]pyridin-2-yl]amino]propionic acid]
The melting point of the first is lower: 163 to 166 °C for the first, 200 to 205 °C for the second.

First: Fc1ccc(F)c(C(Sc2ccc(Cl)cc2)c2cc(Cl)ncc2Cl)c1 (stereo not drawn) [Example 54, 2,5-Dichloro-4-[(4-chlorophenylthio)-(2,5-difluorophenyl)methyl]pyridine]
Second: O=c1oc2ccccc2c(O)c1C(Sc1ccc(Cl)cc1)c1cc(F)ccc1F (stereo not drawn)
The melting point of the first is lower: 128 to 129 °C for the first, 146 to 147 °C for the second.

Compared with `O=C(O)CCCc1cc(C(c2cc(F)ccc2F)S(=O)(=O)c2ccc(Cl)cc2)c(Cl)cn1` (stereo not drawn) [Example 289, 4-[5-Chloro-4-[(4-chlorophenylsulfonyl)(2,5-difluorophenyl)methyl]pyridin-2-yl]butyric acid], `O=S(=O)(c1ccc(Cl)cc1)C(c1cc(F)ccc1F)c1cc(CO)ncc1Br` (stereo not drawn) [Example 228, [5-Bromo-4-[(4-chlorophenylsulfonyl)(2,5-difluorophenyl)methyl]pyridin-2-yl]methanol] is higher in melting point: 147 to 148 °C for the first, 172 to 173 °C for the second.

First: O=S(=O)(c1ccc(Cl)cc1)C(c1cc(F)ccc1F)c1cc(NCCc2ccncc2)ncc1Cl (stereo not drawn) [Example 181, 5-Chloro-4-[(4-chlorophenylsulfonyl)(2,5-difluorophenyl)methyl]-2-[2-(pyridin-4-yl)ethylamino]pyridine]
Second: O=S(=O)(c1ccc(Cl)cc1)C(c1cc(F)ccc1F)c1cc(NCCCNc2ncccn2)ncc1Cl (stereo not drawn) [Example 175, N-[5-Chloro-4-[(4-chlorophenylsulfonyl)-(2,5-difluorophenyl)methyl]pyridin-2-yl]-N′-(pyrimidin-2-yl)propane-1,3-diamine]
The melting point of the first is lower: 148 to 150 °C for the first, 176 to 178 °C for the second.

Compared with `O=S(=O)(c1ccc(Cl)cc1)C(c1ccc(CN2CCCCC2)cn1)c1cc(F)ccc1F` (stereo not drawn) [Example 48, 2-[(4-Chlorophenylsulfonyl)-(2,5-difluorophenyl)methyl]-5-(piperidin-1-ylmethyl)pyridine], `O=S(=O)(c1ccc(Cl)cc1)C(c1ccc(CN2CCOCC2)cn1)c1cc(F)ccc1F` (stereo not drawn) [Example 49, 4-[[6-[(4-Chlorophenylsulfonyl)-(2,5-difluorophenyl)methyl]pyridin-3-yl]methyl]morpholine] is higher in melting point: 113 to 114 °C for the first, 120 to 121 °C for the second.

First: Cc1ccnc(C(c2cc(F)ccc2F)S(=O)(=O)c2ccc(Cl)cc2)c1 (stereo not drawn) [Example 16, 2-[[(4-Chlorophenyl)sulfonyl]-(2,5-difluorophenyl)methyl]-4-methylpyridine]
Second: O=S(=O)(c1ccc(Cl)cc1)C(c1ccccn1)c1cc(F)ccc1F (stereo not drawn) [Example 13, 2-[[(4-Chlorophenyl)sulfonyl]-(2,5-difluorophenyl)methyl]pyridine]
The melting point of the first is lower: 116 to 117 °C for the first, 171 to 172 °C for the second.

First: O=S(=O)(c1ccc(F)cc1)C(c1cc(F)ccc1F)c1cc(NCCO)ncc1Cl (stereo not drawn) [Example 179, 2-[[5-Chloro-4-[(2,5-difluorophenyl)-(4-fluorophenylsulfonyl)methyl]pyridin-2-yl]amino]ethanol]
Second: CS(=O)(=O)NCCCNc1cc(C(c2cc(F)ccc2F)S(=O)(=O)c2ccc(Cl)cc2)c(Cl)cn1 (stereo not drawn) [Example 189, N-[3-[[5-Chloro-4-[(4-chlorophenylsulfonyl)-(2,5-difluorophenyl)methyl]pyridin-2-yl]amino]propyl]methanesulfonamide]
The melting point of the first is higher: 157 to 158 °C for the first, 138 to 139 °C for the second.

First: O=S(=O)(c1ccc(Cl)cc1)C(c1cc(F)ccc1F)C1CCSCC1 (stereo not drawn) [Example 35, 4-[[(4-Chlorophenyl)sulfonyl](2,5-difluorophenyl)methyl]tetrahydrothiopyrane]
Second: Cl.O=S(=O)(c1ccc(Cl)cc1)C(c1cc(F)ccc1F)C1CCNCC1 (stereo not drawn)
The melting point of the first is lower: 150 to 152 °C for the first, 184 to 190 °C for the second.

First: Nc1cc(C(c2cc(F)ccc2F)S(=O)(=O)c2ccc(Cl)cc2)c(Br)cn1 (stereo not drawn) [Example 232, [5-Bromo-4-[(4-chlorophenylsulfonyl)(2,5-difluorophenyl)methyl]pyridin-2-yl]amine]
Second: O=S(=O)(c1ccc(Cl)cc1)C(c1cc(F)ccc1F)c1ncc(CO)cc1F (stereo not drawn) [Example 125, [6-(4-Chlorophenylsulfonyl)(2,5-difluorophenyl)methyl-5-fluoropyridin-3-yl]methanol]
The melting point of the first is higher: 204 to 206 °C for the first, 181 to 183 °C for the second.

Compared with `CCOC(=O)C(=O)NCc1ccc(C(c2cc(F)ccc2F)S(=O)(=O)c2ccc(Cl)cc2)nc1` (stereo not drawn) [Example 69, Ethyl 2-[[6-[(4-Chlorophenylsulfonyl)(2,5-difluorophenyl)methyl]pyridin-3-yl]methylamino]-2-oxoacetate], `CN(C)CC(=O)NCc1ccc(C(c2cc(F)ccc2F)S(=O)(=O)c2ccc(Cl)cc2)nc1` (stereo not drawn) [Example 71, N-[[6-[(4-Chlorophenylsulfonyl)(2,5-difluorophenyl)methyl]pyridin-3-yl]methyl]-2-dimethylaminoacetamide] is lower in melting point: 193 to 194 °C for the first, 177 to 179 °C for the second.

Compared with `O=S(=O)(c1ccc(Cl)cc1)C(c1ccncc1)C1CCCC1` (stereo not drawn) [Example 2, 4-[(4-Chlorophenylsulfonyl)(cyclopentyl)methyl]pyridine], `CN1CCC(C(c2ccncc2)S(=O)(=O)c2ccc(Cl)cc2)CC1` (stereo not drawn) [Example 5, 4-[(4-Chlorophenylsulfonyl)(1-methylpiperidin-4-yl)methyl]pyridine] is higher in melting point: 133 to 135 °C for the first, 176 to 177 °C for the second.

First: O=S(=O)(c1ccc(Cl)cc1)C(c1nccs1)c1cc(F)ccc1F (stereo not drawn) [Example 30, 2-[[(4-Chlorophenyl)sulfonyl]-(2,5-difluorophenyl)methyl]thiazole]
Second: COc1cccnc1C(c1cc(F)ccc1F)S(=O)(=O)c1ccc(Cl)cc1 (stereo not drawn) [Example 17, 2-[[(4-Chlorophenyl)sulfonyl]-(2,5-difluorophenyl)methyl]-3-methoxypyridine]
The melting point of the first is lower: 163 to 164 °C for the first, 184 to 185 °C for the second.

First: O=C(O)c1cnc(C(c2cc(F)ccc2F)S(=O)(=O)c2ccc(Cl)cc2)c(F)c1 (stereo not drawn) [Example 127, 6-(4-Chlorophenylsulfonyl)(2,5-difluorophenyl)methyl-5-fluoronicotinic acid]
Second: O=C(O)/C=C/c1ccc(C(c2cc(F)ccc2F)S(=O)(=O)c2ccc(Cl)cc2)nc1 (stereo not drawn) [Example 135, (E)-3-[6-[(4-Chlorophenylsulfonyl)(2,5-difluorophenyl)methyl]pyridin-3-yl]acrylic acid]
The melting point of the first is higher: 249 to 251 °C for the first, 236 to 238 °C for the second.

First: O=C1C(C(c2cc(F)ccc2F)S(=O)(=O)c2ccc(Cl)cc2)CCCN1CCCO (stereo not drawn) [Example 153, 3-[(4-Chlorophenylsulfonyl)(2,5-difluorophenyl)methyl]-1-(3-hydroxypropyl)piperidin-2-one]
Second: O=C(NCCO)c1ccc(C(c2cc(F)ccc2F)S(=O)(=O)c2ccc(Cl)cc2)nc1 (stereo not drawn) [Example 140, 6-[(4-Chlorophenylsulfonyl)(2,5-difluorophenyl)methyl]-N-(2-hydroxyethyl)nicotinamide]
The melting point of the first is lower: 120 to 121 °C for the first, 179 to 181 °C for the second.

First: O=S(=O)(c1ccc(Cl)cc1)C(c1cncnc1)c1cc(F)ccc1F (stereo not drawn) [Example 21, 5-[[(4-Chlorophenyl)sulfonyl]-(2,5-difluorophenyl)methyl]pyrimidine]
Second: C=CCOc1cccnc1C(c1cc(F)ccc1F)S(=O)(=O)c1ccc(Cl)cc1 (stereo not drawn) [Example 18, 3-Allyloxy-2-[[(4-chlorophenyl)sulfonyl]-(2,5-difluorophenyl)methyl]pyridine]
The melting point of the first is higher: 136 to 137 °C for the first, 119 to 120 °C for the second.

First: CN(C)S(=O)(=O)NCc1ccc(C(c2cc(F)ccc2F)S(=O)(=O)c2ccc(Cl)cc2)nc1 (stereo not drawn) [Example 68, N-[[6-[(4-Chlorophenylsulfonyl)(2,5-difluorophenyl)methyl]pyridin-3-yl]methyl]-N′,N′-dimethylsulfamide]
Second: Cc1ccc(S(=O)(=O)NCC(=O)NCc2ccc(C(c3cc(F)ccc3F)S(=O)(=O)c3ccc(Cl)cc3)nc2)cc1 (stereo not drawn) [Example 70, N-[[6-[(4-Chlorophenylsulfonyl)(2,5-difluorophenyl)methyl]pyridin-3-yl]methyl]-2-(4-methylphenylsulfonylamino)acetamide]
The melting point of the first is lower: 177 to 178 °C for the first, 217 to 218 °C for the second.

In the case of `O=C1NCCCN1c1cc(C(c2cc(F)ccc2F)S(=O)(=O)c2ccc(Cl)cc2)c(Cl)cn1` (stereo not drawn) [Example 190, 1-[5-Chloro-4-[(4-chlorophenylsulfonyl)-(2,5-difluorophenyl)methyl]pyridin-2-yl]tetrahydropyrimidin-2-one], the melting point is reported as > 230 °C.
With `O=C(O)c1ccc(C(c2cc(F)ccc2F)S(=O)(=O)c2ccc(Cl)cc2)nc1` (stereo not drawn) [Example 50, [6-[(4-Chlorophenylsulfonyl)-(2,5-difluorophenyl)methyl]pyridin-3-yl]carboxylic acid] the melting point was > 230 °C.
With `NCCNC(=O)c1ccc(C(c2cc(F)ccc2F)S(=O)(=O)c2ccc(Cl)cc2)nc1` (stereo not drawn) (as salt: hydrochloride) [Example 139, N-(2-Aminoethyl)-6-[(4-chlorophenylsulfonyl)(2,5-difluorophenyl)methyl]nicotinamide] the melting point was > 250 °C (dec.).
